Reference: ChEMBL document CHEMBL1949642 (Bioorg Med Chem Lett, 2012)

Legend:
[1] = target: C-C chemokine receptor type 5 (Homo sapiens, UniProt P51681); assay: Displacement of [125I]MIP-1alpha from human recombinant CCR5 expressed in CHO cells; type: cell-based
[2] = Intrinsic clearance in human liver microsomes; conditions: liver microsomes
[3] = Lipophilicity, log D of the compound at pH 7.4; conditions: buffer
[4] = target: Voltage-gated inwardly rectifying potassium channel KCNH2 (Homo sapiens, UniProt Q12809); assay: Displacement of 3,7-Bis[2-(4-nitro[3,5-3H]phenyl)ethyl]-3,7-diazabicyclo[3.3.1]nonane from human ERG expressed in HEK cells after 3 hrs
Voltage-gated inwardly rectifying potassium channel KCNH2, sequence (Q12809 whole entry): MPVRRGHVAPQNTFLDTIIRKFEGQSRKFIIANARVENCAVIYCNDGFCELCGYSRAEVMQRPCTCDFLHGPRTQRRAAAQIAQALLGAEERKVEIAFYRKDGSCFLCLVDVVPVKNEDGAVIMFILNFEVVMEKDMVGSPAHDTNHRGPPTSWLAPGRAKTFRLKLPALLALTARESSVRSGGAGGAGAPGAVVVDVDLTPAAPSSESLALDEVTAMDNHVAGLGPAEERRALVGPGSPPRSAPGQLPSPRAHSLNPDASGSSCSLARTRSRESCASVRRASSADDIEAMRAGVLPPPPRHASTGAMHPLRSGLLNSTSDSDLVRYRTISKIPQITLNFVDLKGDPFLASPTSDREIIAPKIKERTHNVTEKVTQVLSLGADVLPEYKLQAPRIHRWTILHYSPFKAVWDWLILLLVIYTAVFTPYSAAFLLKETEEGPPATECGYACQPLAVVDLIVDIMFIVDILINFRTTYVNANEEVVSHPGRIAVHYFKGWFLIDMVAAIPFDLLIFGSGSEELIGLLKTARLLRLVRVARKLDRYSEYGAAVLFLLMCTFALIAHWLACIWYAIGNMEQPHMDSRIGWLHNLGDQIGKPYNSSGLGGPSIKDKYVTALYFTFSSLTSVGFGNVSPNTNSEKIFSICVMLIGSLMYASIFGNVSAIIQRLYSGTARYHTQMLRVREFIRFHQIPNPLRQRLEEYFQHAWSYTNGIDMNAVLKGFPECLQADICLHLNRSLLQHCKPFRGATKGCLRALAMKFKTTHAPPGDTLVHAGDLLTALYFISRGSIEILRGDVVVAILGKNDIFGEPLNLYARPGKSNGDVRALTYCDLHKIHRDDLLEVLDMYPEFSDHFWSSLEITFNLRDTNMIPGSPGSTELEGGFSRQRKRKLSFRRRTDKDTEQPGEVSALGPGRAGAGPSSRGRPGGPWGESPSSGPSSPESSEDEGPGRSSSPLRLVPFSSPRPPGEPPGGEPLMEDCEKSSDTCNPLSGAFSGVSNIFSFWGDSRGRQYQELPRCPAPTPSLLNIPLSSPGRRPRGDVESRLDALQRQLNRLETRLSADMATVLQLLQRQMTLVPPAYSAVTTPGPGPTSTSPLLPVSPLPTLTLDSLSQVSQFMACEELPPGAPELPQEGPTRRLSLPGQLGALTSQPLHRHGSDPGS

C-C chemokine receptor type 5, sequence (P51681 whole entry): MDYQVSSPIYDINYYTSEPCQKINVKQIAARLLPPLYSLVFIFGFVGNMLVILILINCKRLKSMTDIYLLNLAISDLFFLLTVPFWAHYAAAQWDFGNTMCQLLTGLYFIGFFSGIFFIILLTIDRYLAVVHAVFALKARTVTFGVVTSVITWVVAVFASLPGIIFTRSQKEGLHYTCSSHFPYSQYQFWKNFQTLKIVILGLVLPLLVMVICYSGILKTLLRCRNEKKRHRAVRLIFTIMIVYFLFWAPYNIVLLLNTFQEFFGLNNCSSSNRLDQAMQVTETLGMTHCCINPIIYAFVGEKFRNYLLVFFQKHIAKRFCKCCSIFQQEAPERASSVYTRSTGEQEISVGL

| SMILES | IC50 [1] [nM] | microsomal CLint [2] [µL/min/mg] | logD [3] | IC50 [4] [µM] |
| --- | --- | --- | --- | --- |
| CCN(C(=O)Cc1ccc(S(C)(=O)=O)cc1)C1CCN(CC[C@@H](c2cc(F)cc(Cl)c2)C2CCN(S(C)(=O)=O)CC2)CC1 |  | 22 | 1.6 |  |
| CCN(C(=O)Cc1ccc(S(C)(=O)=O)cc1)C1CCN(CCC(c2ccccc2)C2CCN(C)CC2)CC1 (racemic) | 126 |  | 1 |  |
| CCN(C(=O)Cc1ccc(S(C)(=O)=O)cc1)C1CCN(CC[C@@H](c2cccc(OC)c2)C2CCN(S(C)(=O)=O)CC2)CC1 | 5 | 45 | 1.2 | 32 |
| CCN(C(=O)Cc1ccc(S(C)(=O)=O)cc1)C1CCN(CC[C@@H](c2cccc(Cl)c2)C2CCN(S(C)(=O)=O)CC2)CC1 | 0.55 | 32 | 1.8 | 7.9 |
| CCN(C(=O)Cc1ccc(S(C)(=O)=O)cc1)C1CCN(CCC(c2ccccc2)N2CCN(C)CC2)CC1 (racemic) |  |  | 0.9 |  |
| CCN(C(=O)Cc1ccc(S(C)(=O)=O)cc1)C1CCN(CC[C@@H](c2ccccc2)N2CCN(S(=O)(=O)CC(F)(F)F)CC2)CC1 | 8.9 | 47 | 1.8 | 5.8 |
| CCN(C(=O)Cc1ccc(S(C)(=O)=O)cc1)C1CCN(CCC(c2ccccc2)C2CCN(C(C)=O)CC2)CC1 (racemic) | 37 |  | 1.4 |  |

Second part, led by results:

| IC50 [1] [nM] | microsomal CLint [2] [µL/min/mg] | logD [3] | SMILES | IC50 [4] [µM] |
| --- | --- | --- | --- | --- |
| 8.9 | > 150 |  | CCN(C(=O)Cc1ccc(S(C)(=O)=O)cc1)C1CCN(CCC(c2ccccc2)C2CCN(Cc3ccccc3)CC2)CC1 (racemic) |  |
| 229 |  | 0.9 | CCN(C(=O)Cc1ccc(S(C)(=O)=O)cc1)C1CCN(CCC(c2ccccc2)N2CCN(C(C)=O)CC2)CC1 (racemic) |  |
| 3.5 | 17 | 1.9 | CCN(C(=O)Cc1ccc(S(C)(=O)=O)cc1)C1CCN(CC[C@@H](c2cccc(C(F)(F)F)c2)C2CCN(S(C)(=O)=O)CC2)CC1 | 7.9 |
|  | 18 |  | CCN(C(=O)Cc1ccc(S(C)(=O)=O)cc1)C1CCN(CC[C@@H](c2cccc(F)c2)C2CCN(S(C)(=O)=O)CC2)CC1 |  |
| 3.1 | 22 | 3.2 | CCN(C(=O)Cc1ccc(S(C)(=O)=O)cc1)C1CCN(CCC(c2ccccc2)N2CCN(c3cccc(F)c3)CC2)CC1 (racemic) | 3.2 |
| 39 | < 3 | 0.8 | CCN(C(=O)Cc1ccc(S(C)(=O)=O)cc1)C1CCN(CCC(c2ccccc2)N2CCN(S(C)(=O)=O)CC2)CC1 (racemic) |  |
| < 0.1 |  | 2.6 | CCN(C(=O)Cc1ccc(S(C)(=O)=O)cc1)C1CCN(CC[C@@H](c2cc(Cl)cc(Cl)c2)C2CCN(S(C)(=O)=O)CC2)CC1 | 6.5 |
| 1.1 | 31 | 1.1 | CCN(C(=O)Cc1ccc(S(C)(=O)=O)cc1)C1CCN(CC[C@@H](c2ccccc2)C2CCN(S(C)(=O)=O)CC2)CC1 | 25 |
